Reference: patent US20080255169A1 (priority 2004, published 2008)
Where two headings read alike, the source gives them in different places. Each block holds one compound with its values, some of them ahead of it.

Tests used:
α2β1 integrin [1] = target: α2β1 integrin (Homo sapiens, UniProt P05556+P17301); experiment: Cell adhesion assay; format: cell-based; settings: for EC50: read-out: EC50 in cell adhesion assay; for Emax: concentration not given, read-out: Emax in cell adhesion assay
α2β1 integrin [2] = target: α2β1 integrin (Homo sapiens, UniProt P17301); experiment: Cell adhesion assay; format: cell-based
PC-3 cells = experiment: Cell invasion assay: invasion of PC-3 cells through Matrigel; format: cell-based; settings: Homo sapiens, 72 hours
From the text: The overexpression regulates cell adhesion and migration to and invasion through the extracellular matrix. By blocking the interaction between extracellular matrix components like collagen and α2β1 it is possible to block cancer cell migration and invasion in vitro. Prostate cancer cells (PC-3) expressing α2β1 endogenously were used to test the in vitro anticancer potential of the inhibitors of the present invention.
Invasion of PC-3 cells (CRL-1435, ATCC) through Matrigel was studied using BD Biocoat invasion inserts (BD Biosciences). Inserts were stored at −20° C. Before the experiments inserts were allowed to adjust to the room temperature. 500 μl of serum free media (Ham's F12K medium, 2 mM L-glutamine, 1.5 g/l sodium bicarbonate) was added into the inserts and allowed to rehydrate at 37° C. in cell incubator for two hours. The remaining media was aspirated. PC-3 cells were detached, pelleted and suspended into serum free media (50 000 cells/500 μl). 300 μl of cell suspension was added into the insert in the absence (control) or presence of the inhibitor according to the pre-sent invention. Inserts were placed on the 24-well plates; each well containing 700 μl of cell culture media with 3% of fetal bovine serum as chemo-attractant. Cells were allowed to invade for 72 hours at 37° C. in cell incubator. Inserts were washed with 700 μl PBS, and fixed with 4% paraformaldehyde for 10 minutes. Paraformaldehyde was aspirated and cells were washed with 700 μl of PBS and inserts were stained by incubation with hematoxylin for 1 minute. The stain was removed by washing the inserts with 700 μl of PBS. Inserts were allowed to dry. Fixed invaded cells were calculated under the microscope. Invasion % was calculated as a comparison to the control.
Cell invasion assay is used as an in vitro cancer metastatis model. […] Some structures inhibit invasion even with submicromolar concentrations. […] In FIG. 2, the dose response of compound 161 in invasion assay is shown. Compound 161 gave the best EC50 value (0.3 μM) in invasion assay. Invasion assay was done with human prostata cancer cell line, PC-3.

[3] = read-out: EC50 in invasion assay

Chain of α2β1 integrin (Homo sapiens, UniProt P05556+P17301) (P17301 30-1181): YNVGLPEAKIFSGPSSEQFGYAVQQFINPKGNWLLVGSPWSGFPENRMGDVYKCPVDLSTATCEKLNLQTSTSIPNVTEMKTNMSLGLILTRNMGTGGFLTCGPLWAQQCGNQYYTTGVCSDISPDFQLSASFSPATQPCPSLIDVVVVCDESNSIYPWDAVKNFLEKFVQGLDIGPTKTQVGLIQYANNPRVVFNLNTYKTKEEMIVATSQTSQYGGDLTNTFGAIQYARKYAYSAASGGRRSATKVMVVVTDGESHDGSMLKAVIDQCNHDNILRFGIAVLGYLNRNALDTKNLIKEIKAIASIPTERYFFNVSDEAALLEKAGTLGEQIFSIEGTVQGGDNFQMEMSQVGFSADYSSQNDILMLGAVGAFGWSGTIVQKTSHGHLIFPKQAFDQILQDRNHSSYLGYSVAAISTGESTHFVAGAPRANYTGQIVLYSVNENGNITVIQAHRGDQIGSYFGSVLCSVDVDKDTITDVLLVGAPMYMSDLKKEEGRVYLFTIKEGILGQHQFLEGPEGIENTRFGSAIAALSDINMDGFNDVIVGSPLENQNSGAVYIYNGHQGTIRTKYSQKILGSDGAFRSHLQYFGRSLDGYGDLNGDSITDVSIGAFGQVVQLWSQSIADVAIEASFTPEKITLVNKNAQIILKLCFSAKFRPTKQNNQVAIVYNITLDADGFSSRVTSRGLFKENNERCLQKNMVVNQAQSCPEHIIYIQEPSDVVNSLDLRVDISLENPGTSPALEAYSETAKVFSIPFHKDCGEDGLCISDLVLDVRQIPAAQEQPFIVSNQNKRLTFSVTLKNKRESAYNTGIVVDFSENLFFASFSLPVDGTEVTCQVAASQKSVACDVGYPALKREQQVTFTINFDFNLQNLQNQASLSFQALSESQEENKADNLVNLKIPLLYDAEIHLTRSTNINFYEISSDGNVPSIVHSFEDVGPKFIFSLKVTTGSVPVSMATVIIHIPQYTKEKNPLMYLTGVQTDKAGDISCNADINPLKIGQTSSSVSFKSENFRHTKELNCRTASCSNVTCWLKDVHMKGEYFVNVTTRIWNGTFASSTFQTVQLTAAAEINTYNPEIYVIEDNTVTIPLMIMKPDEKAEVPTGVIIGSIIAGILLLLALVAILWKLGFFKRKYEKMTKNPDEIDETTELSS
Chain of α2β1 integrin (Homo sapiens, UniProt P05556+P17301) (P05556 21-798 partner): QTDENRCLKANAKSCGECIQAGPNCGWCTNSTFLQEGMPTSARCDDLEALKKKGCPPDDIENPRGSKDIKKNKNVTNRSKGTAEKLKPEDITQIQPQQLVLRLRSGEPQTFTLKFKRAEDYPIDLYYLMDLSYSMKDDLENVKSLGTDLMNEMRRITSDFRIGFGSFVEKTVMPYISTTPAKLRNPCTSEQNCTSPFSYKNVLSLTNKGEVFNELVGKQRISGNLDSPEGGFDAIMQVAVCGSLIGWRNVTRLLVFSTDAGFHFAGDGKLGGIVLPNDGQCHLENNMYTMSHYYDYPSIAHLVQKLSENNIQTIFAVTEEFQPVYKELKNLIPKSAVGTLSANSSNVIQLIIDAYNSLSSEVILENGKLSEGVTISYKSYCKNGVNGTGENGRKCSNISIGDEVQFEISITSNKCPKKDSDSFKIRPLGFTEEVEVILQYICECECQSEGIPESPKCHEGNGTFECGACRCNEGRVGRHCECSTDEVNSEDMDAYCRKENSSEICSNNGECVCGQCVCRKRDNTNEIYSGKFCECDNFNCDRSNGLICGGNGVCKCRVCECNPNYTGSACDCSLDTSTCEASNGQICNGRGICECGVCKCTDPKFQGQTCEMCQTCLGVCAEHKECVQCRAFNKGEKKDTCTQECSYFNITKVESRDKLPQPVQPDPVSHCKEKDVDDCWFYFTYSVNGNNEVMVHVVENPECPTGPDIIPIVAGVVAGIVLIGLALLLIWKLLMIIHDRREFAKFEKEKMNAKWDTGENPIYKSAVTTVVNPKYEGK
Chain of α2β1 integrin (Homo sapiens, UniProt P17301) (P17301 30-1181): as the sequence (P17301 30-1181) above
Chain of α2β1 integrin (Homo sapiens, UniProt P17301) (P05556 21-798 partner): as the sequence (P05556 21-798 partner) above

SMILES: COc1ccc(-c2cccc(S(=O)(=O)Nc3ccc(N(C)C)cc3)c2)cc1OC [Compound 102, 3′,4′-dimethoxy-biphenyl-3-sulphonic acid (4-dimethylamino-phenyl)-amide]
- EC50 (α2β1 integrin [1]): 13 µM
- Emax in cell adhesion assay (α2β1 integrin [2]; concentration not given): 65%
- melting point: 43 °C

SMILES: Cc1cc(C)nc(Nc2ccc(NS(=O)(=O)c3cccc(Br)c3)cc2)n1 [Compound 183]
- EC50 (PC-3 cells; [3]): ≤ 1 µM
- Emax (α2β1 integrin [1]): 81%
- EC50 (α2β1 integrin [1]): 28 µM

SMILES: Cc1[nH]c2ccc(NS(=O)(=O)c3ccc(Cl)cc3Cl)cc2c1C [Compound 210]
- Emax at 50 µM (α2β1 integrin [1]): 80%
- EC50 in cell adhesion assay (α2β1 integrin [2]): dd could not be detected

SMILES: CN(C)c1ccc(N(C)S(=O)(=O)c2cccc(Br)c2)cc1 [Compound 281]
- EC50 (PC-3 cells; [3]): ≤ 1 µM
- Emax (α2β1 integrin [1]): 78%
- EC50 (α2β1 integrin [1]): 47 µM

SMILES: Cc1cc2cc(N(C)S(=O)(=O)c3ccc(Cl)cc3Cl)ccc2n1C [Compound 242, 2,4-dichloro-N-(1,2-dimethyl-1H-indol-5-yl)-N-methyl-benzenesulfonamide]
- EC50 (PC-3 cells; [3]): ≤ 1 µM
- Emax (α2β1 integrin [1]): 70%
- EC50 (α2β1 integrin [1]): 6 µM

SMILES: Cc1cc2cc(NS(=O)(=O)c3ccc(Cl)cc3Cl)ccc2[nH]1 [Compound 131, 2,4-dichloro-N-(2-methyl-1H-indol-5-yl)-benzenesulfonamide]
- EC50 (PC-3 cells; [3]): ≤ 1 µM
- Emax (α2β1 integrin [1]): 58%
- EC50 (α2β1 integrin [1]): 25 µM

SMILES: COc1ccc(-c2cnn(-c3ccc(NS(=O)(=O)c4ccc(Cl)cc4)cc3)c2)cc1 [Compound 176]
- EC50 (PC-3 cells; [3]): ≤ 1 µM
- Emax at 50 µM (α2β1 integrin [1]): 59%
- EC50 (α2β1 integrin [1]): 17 µM

SMILES: CC(=O)c1ccc(-c2cccc(S(=O)(=O)Nc3ccc(N(C)C)cc3)c2)s1 [Compound 239, 3-(5-acetylthien-2-yl)-N-[4-(dimethylamino)phenyl]benzenesulfonamide]
- EC50 (PC-3 cells; [3]): ≤ 1 µM
- Emax at 50 µM (α2β1 integrin [1]): 64%
- EC50 (α2β1 integrin [1]): 24 µM

SMILES: O=S(=O)(Nc1ccc2cc[nH]c2c1)c1ccc(Cl)cc1Cl [Compound 161, 2,4-dichloro-N-(1H-indol-6-yl)-benzenesulfonamide]
- EC50 (PC-3 cells; dose response FIG. 2, read-out: EC50 value in invasion assay): 0.3 µM
- EC50 (PC-3 cells; [3]): ≤ 1 µM
- Emax (α2β1 integrin [1]): 82%
- EC50 (α2β1 integrin [1]): 34 µM

Now from value to compound:

- EC50 (PC-3 cells; [3]): ≤ 1 µM
- Emax (α2β1 integrin [1]): 79%
- EC50 (α2β1 integrin [1]): 33 µM
SMILES: Cc1cc(C)n(-c2ccc(NS(=O)(=O)c3cccc(-c4ccc(F)cc4)c3)cc2)n1 [Compound 298]

- EC50 (PC-3 cells; [3]): ≤ 1 µM
- Emax (α2β1 integrin [1]): 66%
- EC50 (α2β1 integrin [1]): 15 µM
SMILES: Cc1cc(F)ccc1-c1cccc(S(=O)(=O)Nc2ccc(N(C)C)cc2)c1 [Compound 222, N-[4-(dimethylamino)phenyl]-4′-fluoro-2′-methyl-1,1′-biphenyl-3-sulfonamide]

- EC50 (PC-3 cells; [3]): ≤ 1 µM
- Emax at 50 µM (α2β1 integrin [1]): 60%
- EC50 (α2β1 integrin [1]): 20 µM
SMILES: Cn1ccc2cc(NS(=O)(=O)c3cccc(-c4ccc(F)cc4)c3)ccc21 [Compound 285, 4′-fluoro-biphenyl-3-sulfonic acid (1-methyl-1H-indol-5-yl)-amide]

- Emax (α2β1 integrin [1]): 70%
- EC50 (α2β1 integrin [1]): 3 µM
- melting point: 158 to 160 °C
SMILES: CN(C)c1ccc(NS(=O)(=O)c2cccc(-c3ccc(F)cc3)c2)cc1 [Compound 119, N-[4-(dimethylamino)phenyl]-4′-fluoro-1,1′-biphenyl-3-sulphonamide]
